# Experimental data taken from PubChem BioAssay (NCI).
#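 GI50 = concentration required for 50% inhibition of growth. TGI is the concentration that stops growth completely.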
# Key:
# Assay in all cases: NCI-60 cell line screen, 384-well format
# HCC-2998 colon = tested on: HCC-2998 colon
# U251 glioblastoma = tested on: U251 glioblastoma
# NCI-H460 NSCLC = tested on: NCI-H460 NSCLC
# SN12C renal = tested on: SN12C renal
# CCRF-CEM leukemia = tested on: CCRF-CEM leukemia
# ACHN renal = tested on: ACHN renal
# NCI/ADR-RES ovarian = tested on: NCI/ADR-RES ovarian
# SNB-19 CNS = tested on: SNB-19 CNS
# LOX IMVI melanoma = tested on: LOX IMVI melanoma
# MDA-MB-231 breast = tested on: MDA-MB-231 breast
# NCI-H322M lung = tested on: NCI-H322M lung
# NCI-H522 lung = tested on: NCI-H522 lung
# SK-OV-3 ovarian = tested on: SK-OV-3 ovarian
# PC-3 prostate = tested on: PC-3 prostate
# HOP-92 NSCLC = tested on: HOP-92 NSCLC
# HT29 colon = tested on: HT29 colon
# UO-31 renal = tested on: UO-31 renal
# HS 578T breast = tested on: HS 578T breast
# SR leukemia = tested on: SR leukemia
# EKVX NSCLC = tested on: EKVX NSCLC
# SW-620 colon = tested on: SW-620 colon
# NCI-H23 lung = tested on: NCI-H23 lung
# A549 NSCLC = tested on: A549 NSCLC
# MOLT-4 leukemia = tested on: MOLT-4 leukemia
# SF-539 CNS = tested on: SF-539 CNS
# MCF7 breast = tested on: MCF7 breast
# KM12 colon = tested on: KM12 colon
# MDA-MB-468 breast = tested on: MDA-MB-468 breast
# MALME-3M melanoma = tested on: MALME-3M melanoma
# HL-60(TB) leukemia = tested on: HL-60(TB) leukemia
# BT-549 breast = tested on: BT-549 breast
# HCT-116 colon = tested on: HCT-116 colon
# NCI-H226 lung = tested on: NCI-H226 lung
# COLO 205 colon = tested on: COLO 205 colon
# CAKI-1 renal = tested on: CAKI-1 renal
# K-562 leukemia = tested on: K-562 leukemia
# RXF 393 renal = tested on: RXF 393 renal
# HCT-15 colon = tested on: HCT-15 colon
# 786-0 renal = tested on: 786-0 renal
# OVCAR-4 ovarian = tested on: OVCAR-4 ovarian
# UACC-62 melanoma = tested on: UACC-62 melanoma
# UACC-257 melanoma = tested on: UACC-257 melanoma
# SF-295 CNS = tested on: SF-295 CNS
# DU-145 prostate = tested on: DU-145 prostate
# IGROV1 ovarian = tested on: IGROV1 ovarian
# TK-10 renal = tested on: TK-10 renal
# OVCAR-3 ovarian = tested on: OVCAR-3 ovarian
compound,measurement,setting,value
NC1(c2ccc(-c3nc4ccn5c(=O)[nH]nc5c4cc3-c3ccccc3)cc2)CCC1,GI50,HCC-2998 colon,1390 nM
same,TGI,HCC-2998 colon,2780 nM
same,GI50,U251 glioblastoma,1860 nM
same,TGI,U251 glioblastoma,4530 nM
same,GI50,NCI-H460 NSCLC,463 nM
same,TGI,NCI-H460 NSCLC,2860 nM
same,GI50,SN12C renal,4040 nM
same,TGI,SN12C renal,16300 nM
same,GI50,CCRF-CEM leukemia,127 nM
same,TGI,CCRF-CEM leukemia,1160 nM
same,GI50,ACHN renal,1290 nM
same,TGI,ACHN renal,5450 nM
same,GI50,NCI/ADR-RES ovarian,3180 nM
same,TGI,NCI/ADR-RES ovarian,12100 nM
same,GI50,SNB-19 CNS,2550 nM
same,TGI,SNB-19 CNS,7450 nM
same,GI50,LOX IMVI melanoma,1580 nM
same,TGI,LOX IMVI melanoma,2950 nM
same,GI50,MDA-MB-231 breast,2490 nM
same,TGI,MDA-MB-231 breast,6520 nM
same,GI50,NCI-H322M lung,2440 nM
same,TGI,NCI-H322M lung,10200 nM
same,GI50,NCI-H522 lung,2390 nM
same,TGI,NCI-H522 lung,6500 nM
same,GI50,SK-OV-3 ovarian,763 nM
same,TGI,SK-OV-3 ovarian,2300 nM
same,GI50,PC-3 prostate,139 nM
same,TGI,PC-3 prostate,3210 nM
same,GI50,HOP-92 NSCLC,1160 nM
same,TGI,HOP-92 NSCLC,2660 nM
same,GI50,HT29 colon,1290 nM
same,TGI,HT29 colon,2690 nM
same,GI50,UO-31 renal,2200 nM
same,TGI,UO-31 renal,6720 nM
same,GI50,HS 578T breast,704 nM
same,TGI,HS 578T breast,2170 nM
same,GI50,SR leukemia,1140 nM
same,TGI,SR leukemia,2360 nM
same,GI50,EKVX NSCLC,1620 nM
same,TGI,EKVX NSCLC,5920 nM
same,GI50,SW-620 colon,4690 nM
same,TGI,SW-620 colon,8900 nM
same,GI50,NCI-H23 lung,2490 nM
same,TGI,NCI-H23 lung,7480 nM
same,GI50,A549 NSCLC,2050 nM
same,TGI,A549 NSCLC,9340 nM
same,GI50,MOLT-4 leukemia,131 nM
same,TGI,MOLT-4 leukemia,632 nM
same,GI50,SF-539 CNS,815 nM
same,TGI,SF-539 CNS,2080 nM
same,GI50,MCF7 breast,135 nM
same,TGI,MCF7 breast,1720 nM
same,GI50,KM12 colon,2320 nM
same,TGI,KM12 colon,7070 nM
same,GI50,MDA-MB-468 breast,48.3 nM
same,TGI,MDA-MB-468 breast,514 nM
same,GI50,MALME-3M melanoma,683 nM
same,TGI,MALME-3M melanoma,2210 nM
same,GI50,HL-60(TB) leukemia,1920 nM
same,TGI,HL-60(TB) leukemia,3360 nM
same,GI50,BT-549 breast,875 nM
same,TGI,BT-549 breast,2520 nM
same,GI50,HCT-116 colon,1520 nM
same,TGI,HCT-116 colon,2960 nM
same,GI50,NCI-H226 lung,2080 nM
same,TGI,NCI-H226 lung,7360 nM
same,GI50,COLO 205 colon,712 nM
same,TGI,COLO 205 colon,2650 nM
same,GI50,CAKI-1 renal,883 nM
same,TGI,CAKI-1 renal,2600 nM
same,GI50,K-562 leukemia,1590 nM
same,TGI,K-562 leukemia,3030 nM
same,GI50,RXF 393 renal,863 nM
same,TGI,RXF 393 renal,2230 nM
same,GI50,HCT-15 colon,1400 nM
same,TGI,HCT-15 colon,2780 nM
same,GI50,786-0 renal,1070 nM
same,TGI,786-0 renal,2320 nM
same,GI50,OVCAR-4 ovarian,2790 nM
same,TGI,OVCAR-4 ovarian,7480 nM
same,GI50,UACC-62 melanoma,1450 nM
same,TGI,UACC-62 melanoma,5450 nM
same,GI50,UACC-257 melanoma,1540 nM
same,TGI,UACC-257 melanoma,2890 nM
same,GI50,SF-295 CNS,1340 nM
same,TGI,SF-295 CNS,2720 nM
same,GI50,DU-145 prostate,5780 nM
same,TGI,DU-145 prostate,17400 nM
same,GI50,IGROV1 ovarian,188 nM
same,TGI,IGROV1 ovarian,2390 nM
same,GI50,TK-10 renal,1340 nM
same,TGI,TK-10 renal,3900 nM
same,GI50,OVCAR-3 ovarian,859 nM
same,TGI,OVCAR-3 ovarian,4780 nM
